The values below are quoted from earlier work in patent US9226984B2, “Entrapment of radionuclides in nanoparticle compositions” (Technical University of Denmark and Rigshospitalet, priority 2010, dated 2016).

SMILES strings stand for the structures.

For this series the following is noted: ionophore-assisted loading.

Take `Oc1cccc2cccnc12` [oxine, 8-hydroxyquinoline]: the “64Cu2+ retention of liposomes loaded with the ionophore” value is listed as “unstable liposomes”.
